The results in this text go back to PubChem BioAssay (NCI).

Test systems include DMS 273 small cell lung; HCT-116 colon; HCT-15 colon; HL-60(TB) leukemia; M14 melanoma; M19-MEL melanoma; NCI-H226 lung; NCI-H23 lung; PC-3 prostate; UACC-257 melanoma.
Assay in all cases: NCI tumour cell line growth inhibition, 48 h

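Protocol summary: plate cells (96-well), add compound at 5 concentrations, incubate 48 h, interpolate endpoints linearly. GI50 marks 50% less growth. TGI marks complete inhibition of growth.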

Take `CN1CCN(C)C12C=c1ccccc1=CC21CC1`: the TGI with DMS 273 small cell lung was greater than 100 µM; in the test on HCT-116 colon, 56.9 µM; in the test with HCT-15 colon, 73.6 µM; in the test with HL-60(TB) leukemia, 46.1 µM; in the test on M14 melanoma, 34.8 µM; in the test on M19-MEL melanoma, 37.1 µM. For the same molecule, the TGI is greater than 100 µM in the test with NCI-H226 lung, greater than 100 µM with NCI-H23 lung, greater than 96.3 µM with PC-3 prostate and 48.2 µM in the test on UACC-257 melanoma.

For `CCC[CH2][Sn]1([CH2]CCC)[O]Cc2nc(C)ccc2[O]1`, the GI50 in the test with DMS 273 small cell lung was 11 µM; in the test with HCT-116 colon, 12.1 µM; in the test on HCT-15 colon, 10.1 µM; in the test on HL-60(TB) leukemia, 1.58 µM; with M14 melanoma it was 10.9 µM; in the test on M19-MEL melanoma, 4.49 µM. Further, the GI50 in the test with NCI-H226 lung is 14 µM; with NCI-H23 lung, 1.84 µM; with UACC-257 melanoma, 5.6 µM. Further, the TGI in the test with DMS 273 small cell lung is 22.9 µM; in the test on HCT-116 colon, 24.5 µM; in the test with HCT-15 colon it was 21.9 µM; in the test with HL-60(TB) leukemia, 4.64 µM; in the test with M14 melanoma, 23.5 µM; in the test with M19-MEL melanoma, 19.2 µM. Besides, the TGI in the test on NCI-H226 lung worked out at 27.1 µM; with NCI-H23 lung, 4.79 µM; with UACC-257 melanoma, 20.2 µM.

Take `CC[CH2][Sn]([CH2]CC)([O]C(=O)c1cccnc1SC)[O][Sn]([CH2]CC)([CH2]CC)[O]C(=O)c1cccnc1SC`: the GI50 is 0.367 µM in the test on DMS 273 small cell lung; 0.452 µM in the test on HCT-116 colon; 0.246 µM with HCT-15 colon; 0.26 µM with HL-60(TB) leukemia; 0.513 µM in the test with M14 melanoma; 0.0833 µM in the test with M19-MEL melanoma. For the same molecule, the GI50 in the test with NCI-H226 lung is 0.614 µM; in the test on NCI-H23 lung, 0.218 µM; in the test with PC-3 prostate, 2.3 µM; with UACC-257 melanoma, 0.594 µM. The TGI in the test on DMS 273 small cell lung came to 1.69 µM; with HCT-116 colon it was 1.48 µM; in the test on HCT-15 colon, 0.998 µM; in the test on HL-60(TB) leukemia it was 4.24 µM; with M14 melanoma, 1.38 µM; in the test on M19-MEL melanoma, 0.337 µM. Moreover, the TGI in the test with NCI-H226 lung was 1.79 µM; in the test with NCI-H23 lung it was 0.801 µM; in the test on PC-3 prostate it was 6.48 µM; in the test with UACC-257 melanoma, 1.72 µM.

With `COC(=O)/C(=N/NC(=O)C[N+](C)(C)C)C(C(=O)OC)C(=O)C(=O)Nc1ccc(F)cc1` (configuration not stated), the TGI with DMS 273 small cell lung, in the test with HCT-116 colon, in the test with HCT-15 colon, in the test on HL-60(TB) leukemia, with M14 melanoma and in the test on M19-MEL melanoma was greater than 100 µM throughout. The TGI with NCI-H226 lung, in the test on NCI-H23 lung and in the test on UACC-257 melanoma was greater than 100 µM throughout.

For the molecule `O=c1/c(=C/c2ccco2)sc2nc3ccccc3n12`, the GI50 is greater than 10 µM with DMS 273 small cell lung; greater than 100 µM with HCT-116 colon; greater than 100 µM with HL-60(TB) leukemia; greater than 100 µM in the test with M14 melanoma; greater than 100 µM with M19-MEL melanoma; greater than 100 µM in the test with NCI-H226 lung. Moreover, the GI50 in the test with NCI-H23 lung and with UACC-257 melanoma was greater than 100 µM throughout. The TGI is greater than 100 µM with DMS 273 small cell lung; greater than 100 µM in the test on HCT-116 colon; greater than 10 µM in the test on HCT-15 colon; greater than 100 µM with HL-60(TB) leukemia; greater than 100 µM in the test on M14 melanoma; greater than 100 µM in the test with M19-MEL melanoma. The TGI in the test on NCI-H226 lung, with NCI-H23 lung and in the test with UACC-257 melanoma was greater than 100 µM each time.

Regarding `O=C1CCC(=O)N2CCCCN12`, the TGI with DMS 273 small cell lung, in the test with HCT-116 colon, with HCT-15 colon, in the test on HL-60(TB) leukemia, with M14 melanoma and in the test with M19-MEL melanoma was greater than 100 µM each time. The TGI with NCI-H226 lung, in the test with NCI-H23 lung and in the test on UACC-257 melanoma was greater than 100 µM each time.

Take `NC(=O)C(=O)N/N=C(\CC1(O)C(=O)Nc2ccccc21)c1ccc2ccccc2c1` (configuration not stated): the TGI in the test with DMS 273 small cell lung was 80.5 µM; in the test on HCT-116 colon, 21.2 µM; with HCT-15 colon, greater than 100 µM; with HL-60(TB) leukemia it was 36.5 µM; in the test with M14 melanoma, greater than 100 µM; with M19-MEL melanoma, 65.6 µM. The TGI is greater than 100 µM with NCI-H226 lung, 76.7 µM in the test with NCI-H23 lung and greater than 100 µM with UACC-257 melanoma.

Turning to `Cc1cccc(C)c1NC(=O)C(=O)C1C(=O)NC(=O)NC1=O`, the TGI with DMS 273 small cell lung, with HCT-116 colon, with HCT-15 colon, with HL-60(TB) leukemia, in the test on M14 melanoma and in the test on M19-MEL melanoma was greater than 100 µM in each case. Also, the TGI in the test with NCI-H226 lung, in the test on NCI-H23 lung and with UACC-257 melanoma was greater than 100 µM each time.

Consider `O=C1O[C@@H](c2ccc3c(c2)OCO3)C2C(=O)O[C@@H](c3ccc4c(c3)OCO4)C12` (some centres not stated), for which the TGI with DMS 273 small cell lung, in the test on HCT-116 colon, with HCT-15 colon, in the test on HL-60(TB) leukemia, in the test on M14 melanoma and with M19-MEL melanoma was greater than 100 µM each time. For the same molecule, the TGI in the test on NCI-H226 lung, in the test on NCI-H23 lung and in the test with UACC-257 melanoma was greater than 100 µM in each case.

On to `OCC(O)CC[CH2][Sn]([Br])([c]1ccccc1)[c]1ccccc1` (configuration not stated), for which the GI50 in the test with DMS 273 small cell lung was greater than 100 µM; in the test on HCT-116 colon, greater than 100 µM; with HCT-15 colon, greater than 100 µM; with HL-60(TB) leukemia, 52 µM; in the test on M14 melanoma, greater than 100 µM; in the test with M19-MEL melanoma it was greater than 100 µM. Further, the GI50 in the test on NCI-H226 lung, in the test with NCI-H23 lung and in the test with UACC-257 melanoma was greater than 100 µM in each case. Besides, the TGI with DMS 273 small cell lung, with HCT-116 colon, in the test on HCT-15 colon, in the test with HL-60(TB) leukemia, in the test with M14 melanoma and in the test with M19-MEL melanoma was greater than 100 µM throughout. In addition, the TGI in the test on NCI-H226 lung, in the test with NCI-H23 lung and in the test with UACC-257 melanoma was greater than 100 µM each time.

`O=C(/C=C/c1c(O)ccc2ccccc12)c1cccc(O)c1`: the TGI in the test with DMS 273 small cell lung is greater than 100 µM; in the test on HCT-116 colon, greater than 100 µM; with HCT-15 colon, greater than 100 µM; in the test with HL-60(TB) leukemia, greater than 64.3 µM; in the test on M14 melanoma, greater than 100 µM; with M19-MEL melanoma, 33.3 µM. Besides, the TGI in the test with NCI-H226 lung, in the test on NCI-H23 lung and with UACC-257 melanoma was greater than 100 µM throughout.

Turning to `COC(=O)/C=C/c1cc(OC)c(OC)c(OC)c1`, the TGI in the test on DMS 273 small cell lung, in the test on HCT-116 colon, in the test with HCT-15 colon, with HL-60(TB) leukemia, in the test on M14 melanoma and with M19-MEL melanoma was greater than 100 µM throughout. Also, the TGI in the test with NCI-H226 lung, in the test with NCI-H23 lung and in the test on UACC-257 melanoma was greater than 100 µM in each case.

For the molecule `CCC[CH2][Sn]([CH2]CCC)([O]C(=O)c1cccnc1SC)[O]C(=O)c1cccnc1SC`, the GI50 with DMS 273 small cell lung is 1.07 µM; with HCT-116 colon, 1.12 µM; in the test with HCT-15 colon, 1.04 µM; in the test on HL-60(TB) leukemia, 0.16 µM; with M14 melanoma, 1.04 µM; with M19-MEL melanoma it was 0.36 µM. The GI50 in the test with NCI-H226 lung was 0.883 µM; in the test with NCI-H23 lung it was 0.771 µM; with UACC-257 melanoma, 0.922 µM. Further, the TGI in the test with DMS 273 small cell lung was 2.26 µM; with HCT-116 colon it was 2.32 µM; with HCT-15 colon, 2.3 µM; with HL-60(TB) leukemia, 1.05 µM; in the test on M14 melanoma, 2.29 µM; with M19-MEL melanoma, 1.57 µM. Besides, the figures for the TGI in the test on NCI-H226 lung, with NCI-H23 lung and in the test on UACC-257 melanoma were 2.18 µM, 2.1 µM and 2.14 µM, respectively.

With `O=C1CCC2(c3ccc(F)cc3)Nc3cc(Cl)ccc3N12` (configuration not stated), the TGI with DMS 273 small cell lung, with HCT-116 colon, in the test on HCT-15 colon, with HL-60(TB) leukemia, in the test on M14 melanoma and in the test with M19-MEL melanoma was greater than 100 µM each time. For the same molecule, the TGI with NCI-H226 lung, in the test on NCI-H23 lung and in the test with UACC-257 melanoma was greater than 100 µM in each case.

Regarding `Cc1cc2c(cc1C)[n+](=O)c(C(=O)C/C(=N/NC(=O)CC#N)C(=O)Nc1ccccc1C(F)(F)F)c(C)n2[O-]`, the TGI with DMS 273 small cell lung was greater than 100 µM; with HCT-116 colon, greater than 100 µM; in the test with HCT-15 colon, greater than 100 µM; with HL-60(TB) leukemia, 86 µM; with M14 melanoma it was greater than 100 µM; with M19-MEL melanoma, greater than 100 µM. The TGI in the test on NCI-H226 lung, in the test on NCI-H23 lung and in the test on UACC-257 melanoma was greater than 100 µM each time.
